A short description of data set [1]: X-ray powder diffraction (XRPD) crystal structure before and after processing. It counts as physicochemical. The source says:
The crystal structure of {2-[3-cyclohexyl-3-(trans-4-propoxy-cyclohexyl)-ureido]-thiazol-5-ylsulfanyl}-acetic acid was not changed during nanosizing.
The crystal structure of {2-[3-cyclohexyl-3-(trans-4-propoxy-cyclohexyl)-ureido]-thiazol-5-ylsulfanyl}-acetic acid was not changed during spray drying.

A short description of data set [2]: Biopharmaceutics Classification System (BCS) classification. It counts as physicochemical. The source says: As a result, Class IV drugs have poor bioavailability and are usually not well-absorbed while having high variability. Preparing a stable, bioavailable composition containing {2-[3-cyclohexyl-3-(trans-4-propoxy-cyclohexyl)-ureido]-thiazol-5-ylsulfanyl}-acetic acid or a pharmaceutically acceptable salt thereof is, however, not straight forward.

The subject of data set [3] is insulin secretion by the pancreas. As to conditions: in the presence of glucose; cited from earlier work.

Take `CCCO[C@H]1CC[C@H](N(C(=O)Nc2ncc(SCC(=O)O)s2)C2CCCCC2)CC1` [{2-[3-cyclohexyl-3-(trans-4-propoxy-cyclohexyl)-ureido]-thiazol-5-ylsulfanyl}-acetic acid]: the “crystal structure (XRPD)” value in data set [1] (during nanosizing by microfluidization, lyophilized suspension) is reported as “not changed”; in data set [1] (during spray drying) it was “not changed”. In addition, in data set [2], the “Biopharmaceutics Classification System (BCS) class” value was “Class IV”. Besides, the solubility result in data set [2] (BCS classification) is on record as “low solubility”. Besides, the “insulin secretion by the pancreas” value in data set [3] was “does not increase insulin secretion”.

These data come from patent publication US20160015638A1, “STABLE GLUCOKINASE ACTIVATOR COMPOSITIONS” (vTv Therapeutics LLC, priority 2013, published 2016).
